Test results as given in patent US4690935A, “Inhibition of tumor growth and metastasis with calcium channel blocker compounds” (Wayne State University, priority 1983, dated 1987).

How the values were obtained:
B16a Tumor Cells = test: 3H-thymidine incorporation into DNA of cultured B16a tumor cells; type: cell-based, mouse; details: for effect on 3H-thymidine incorporation (in words): B16a tumor cell DNA
Description: ^3 H-thymidine incorporation studies were designed to measure the effects of BAY e 9736, nimodipine on the incorporation of ^3 H-thymidine into the DNA of B16a tumor cells. One ml of cultured B16a tumor cells (in MEM+10% fetal calf serum) at 1×10^5 cells/ml are placed into plastic incubation tubes. The cells are incubated for 15 minutes at 37° C. in the presence of five microliters of dilutent (DMSO, dimethyl sulfoxide) alone or dilutent containing BAY e 9736. After 15 minutes, which is considered the preincubation period, the cells are incubated for one hour (at 37° C.) in the presence of one microcurie (per ml) ^3 H-thymidine. The assay is terminated by the addition of one milliliter of cold trichloroacetic acid, TCA, (6% w/v). The cells are centrifuged at 10,000×g ×4 minutes. The supernatant is discarded. The resulting pellet is resuspended in one milliliter of TCA, vortexed and then repelleted by centrifugation at 10,000 ×g ×4 minutes. The supernatant is discarded. The pellets are resuspended in 100 microliters of tissue solubilizing fluid (NCS from Amersham Corporation) and incubated for 2 hours at 50° C. Fifty microliter aliquots of the solubilized pellets are transferred into plastic scintillation vials containing 3 milliliters of scintillation fluid (Econofluor, New England Nuclear), allowed to cool and dark adjust, and counted.
A variation of the previously described experiment was used to determine the effects of BAY e 9736 on a different parameter of tumor cell proliferation, the replication of deoxyribonucleic acid (DNA) as measured by the incorporation of ^3 H-thymidine into tumor cell DNA. B16a tumor cells were grown in T-75 flasks and removed using trypsin, as previously described for Walker 256 L-Pam tumor cells. The B16a cells are quenched, washed, and resuspended in media (MEM+10% fetal calf serum, FCS) to a concentration of 1×10^5 cells/ml. One milliliter of tumor cells are placed into 5 ml plastic incubation tubes, and five microliters of media, dilutant, or dilutant containing 8, 4, or 2 milligram/ml BAY e 9736 are added to appropriate tubes. The assay was run, terminated, and the B16a tumor cell DNA extracted and counted as previously described.
Protocol same as previously described except nifedipine (40 mg) is first dissolved in absolute ethanol (0.5 ml) and then diluted with PEG-400 (1.5 ml) to a final concentration of 20 mg/ml. One microliter of the 20 mg/ml nifedipine solution was added to one ml of B16a tumor cells (for final concentration of 20 micrograms/ml). Nimodipine was dissolved as previously described.

Platelet [1] = test: ADP induced platelet aggregation; type: cell-based, human; details: for effect on ADP induced platelet aggregation (in words): higher concentrations
Description: (§1) Blood (45 ml) was drawn from the […] vein of healthy, fasted, aspirin free (at least two weeks) human volunteers into a plastic syringe containing 5 ml of 4.8% dextrose with 50 U/ml heparin buffered by 25 mM HEPES, pH 7.5. An 18 gauge needle was used to prevent hemolysis. The heparinized blood was gently mixed by inverting the syringe five times and then the blood was transfused into two 40 ml plastic centrifuge tubes and centrifuged for 10 min at 163×g. The resulting platelet rich plasma (PRP; the supernatant fraction) was decanted using an adjustable SMI pipette set at 6 ml. Platelet poor plasma (PPP) was prepared by centrifugation of PRP for 10 min at 1086×g. Platelet poor plasma was used to standardize the platelet concentration in PRP to 3×10^8 /ml. Platelet concentrations were determined using a Coulter Model ZBI cell counter.
(§2) Platelet aggregation was measured photometrically using a Sienco Model DP-247E dual channel aggregometer and recorded on a Sienco Model B-5000 dual channel recorder. Aliquots of PRP (250 microliters at 3×10^8 platelets/ml) were transferred into aggregometry cuvettes and stirred at a constant speed of 800 RPM at 37° C. Platelet aggregation studies were designed and run as individually controlled samples. BAY e 9736 was dissolved in either PEG-400 or […] (DMSO).
(§3) BAY e 9736 in PEG-400 alone was aliquoted into the cuvettes prior to the addition of the PRP. Immediately after the addition of the PRP, the cuvettes were placed into the aggregometer. After two minutes (to allow for the stabilization of the platelet preparation and mixing of the BAY e 9736), ADP or tumor cells were added in 20 microliter aliquots to induce platelet aggregation.
Adenosine diphosphate (ADP) was prepared as a 1 mM solution (in distilled water). A 25 microliter aliquot was added to control and BAY e 9736 treated cuvettes containing PRP. The ADP concentration used induces rapid, monophasic platelet aggregation.

Platelet [2] = test: Tumor cell (B16a) induced platelet aggregation (TCIPA); type: cell-based, human; details: for effect on tumor cell induced platelet aggregation (in words): 400 micrograms/ml to 0.4 micrograms/ml
Description: as §1, §2, §3
A 20 milligram sample of BAY e 9736 was dissolved in 1 ml of polyethylene glycol (PEG-400) and serially diluted with PEG-400 to 2, 0.2 and 0.02 mg/ml concentrations using PEG-400. Tumor cell induced platelet aggregation (TCIPA) studies were performed as described previously. The effect of BAY e 9736 on TCIPA was determined by the mixing of 2 or 5 microliter aliquots of 20, 2, 0.2 or 0.02 mg/ml BAY e 9736 and the platelet rich plasma (PRP) for approximately 3 minutes prior to the addition of tumor cells.

COCCOC(=O)C1=C(C)NC(C)=C(C(=O)OC(C)C)C1c1cccc([N+](=O)[O-])c1 (stereo not drawn) [BAY e 9736, 1,4-dihydro-2,6-dimethyl-4-(3' nitrophenyl)-pyridine-3-(beta-methyoxyethylester)-5-(isopropyl ester)]
effect on 3H-thymidine incorporation (in words) (B16a Tumor Cells): inhibited the incorporation of ^3 H-thymidine into the tumor cell DNA | effect on 3H-thymidine incorporation (in words) (B16a Tumor Cells; listed as nimodipine): decreases the rate of incorporation of ^3 H-thymidine into tumor cell DNA | activity at 10 µg/mL (B16a Tumor Cells; Mus musculus, .01 mg/ml, 15 min preincubation, 1 hour incorporation, x ± SEM, n = 4, read-out: % of Control Tumor Cell Incorporation (3H-thymidine)): 77 ± 2.5% | activity at 20 µg/mL (B16a Tumor Cells; Mus musculus, .02 mg/ml, 15 min preincubation, 1 hour incorporation, x ± SEM, n = 4, read-out: % of Control Tumor Cell Incorporation (3H-thymidine)): 56 ± 3.5% | activity at 40 µg/mL (B16a Tumor Cells; Mus musculus, .04 mg/ml, 15 min preincubation, 1 hour incorporation, x ± SEM, n = 4, read-out: % of Control Tumor Cell Incorporation (3H-thymidine)): 38 ± 4% | % Inhibition of ADP Induced Platelet Aggregation (Platelet [1]; 0.0015 mg/ml final, 0.1 mM ADP): No effect | % Inhibition of ADP Induced Platelet Aggregation (Platelet [1]; 0.004 mg/ml final (second line so printed, below 0.0015), 0.1 mM ADP): No effect | % Inhibition of ADP Induced Platelet Aggregation (Platelet [1]; 0.004 mg/ml final, 0.1 mM ADP): No effect | inhibition at 15 µg/mL (Platelet [1]; Homo sapiens, Platelet, 0.015 mg/ml final, 0.1 mM ADP, printed "No effect to 12%"): ≤ 12% | inhibition at 40 µg/mL (Platelet [1]; Homo sapiens, Platelet, 0.04 mg/ml final, 0.1 mM ADP, x ± SEM, n = 3): 31 ± 6.2% | inhibition at 150 µg/mL (Platelet [1]; Homo sapiens, Platelet, 0.15 mg/ml final, 0.1 mM ADP, x ± SEM, n = 3): 58 ± 11% | inhibition at 400 µg/mL (Platelet [1]; Homo sapiens, Platelet, 0.4 mg/ml final, 0.1 mM ADP, x ± SEM, n = 3): 69 ± 7.5% | effect on ADP induced platelet aggregation (in words) (Platelet [1]): able to significantly inhibit this aggregation | effect on ADP induced platelet aggregation (in words) (Platelet [1]; listed as nimodipine): greatly inhibit platelet aggregation induced by tumor cells and ADP | % Inhibition of Tumor Cell Induced Platelet Aggregation (Platelet [2]; 0.00015 mg/ml final): No effect | % Inhibition of Tumor Cell Induced Platelet Aggregation (Platelet [2]; 0.004 mg/ml final (second line so printed, below 0.0015)): No effect | effect on tumor cell induced platelet aggregation (in words) (Platelet [2]): does inhibit TCIPA | effect on tumor cell induced platelet aggregation (in words) (Platelet [2]; listed as nimodipine): greatly inhibit platelet aggregation induced by tumor cells | inhibition at 1.5 µg/mL (Platelet [2]; Homo sapiens, Platelet, 0.0015 mg/ml final, x ± SEM, n = 3): 12 ± 4.1% | inhibition at 4 µg/mL (Platelet [2]; Homo sapiens, Platelet, 0.004 mg/ml final, x ± SEM, n = 3): 19 ± 5.9% | inhibition at 15 µg/mL (Platelet [2]; Homo sapiens, Platelet, 0.015 mg/ml final, x ± SEM, n = 3): 32 ± 3.5% | inhibition at 40 µg/mL (Platelet [2]; Homo sapiens, Platelet, 0.04 mg/ml final, x ± SEM, n = 3): 55 ± 7.7% | inhibition at 150 µg/mL (Platelet [2]; Homo sapiens, Platelet, 0.15 mg/ml final, x ± SEM, n = 3): 67 ± 8.5% | inhibition at 400 µg/mL (Platelet [2]; Homo sapiens, Platelet, 0.4 mg/ml final, x ± SEM, n = 3): 85 ± 9.6% | effect on platelet aggregation, dissolved in PEG-400 vs DMSO (Platelet [2]; preliminary aggregometry studies): no statistically significant differences
